US8138153B2, “Potassium channel modulator peptide” (National Centre for Biological Sciences, priority 2004, dated 2012)
Entries after “also recorded” stand apart in the source; their conditions may differ.

Test system: K^+ currents (voltage dependent potassium channels) in DRG neurons
Format: cell-based, Wistar rats

Question: For FHGGSWYRFPWGY-NH2 [Mo1659], which “Effect on sustained (non-inactivating) K^+ current component” value is on record?
Answer: predominantly affects the sustained K^+ current component; also recorded: specifically acts on the non-inactivating K^+ currents
